The source of these data is patent publication US20240150377A1, “MODULATORS OF CYSTIC FIBROSIS TRANSMEMBRANE CONDUCTANCE REGULATOR” (VERTEX PHARMACEUTICALS INCORPORATED, priority 2020, published 2024).

The conditions of data set [1]: amide bond, 13-membered ring.
In data set [2] the target is T1, CFTR (Homo sapiens, UniProt P13569). Briefly: Membrane potential dye, Enteroid Assay B. The class given is cell-based. The settings on record: Table 6. In outline: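 Fluorescence read over 15 min after chloride-free stimulation (10 μM forskolin, 100 μM IBMX, 300 nM Compound III) gave chloride transport, reported as % activity versus a triple-corrector/potentiator control. Beforehand, human enteroid cells had 18-24 h compound exposure at 37° C and 25 min methyl oxonol dye loading at room temperature.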

The next data set has as its target T2, F508del (Homo sapiens, UniProt P13569, DEL508-508).
T2 construct: expressed in transfected cells
Put plainly: 3T3 assay: membrane potential optical assay for F508del correction. The class given is cell-based. Conditions: F508del NIH 3T3 cells; for Emax: NIH3T3, compared to lumacaftor in combination with acutely added 300 nM Ivacaftor, read-out: 3T3 Max Activity; for pEC50: 18-24 hours at 37° C., forskolin, acutely added 300 nM Ivacaftor. An excerpt:
1. Membrane Potential Optical Methods for Assaying F508del Modulation Properties of Compounds
The assay utilizes fluorescent voltage sensing dyes to measure changes in membrane potential using a fluorescent plate reader (e.g., FLIPR III, Molecular Devices, Inc.) as a readout for increase in functional F508del in NIH 3T3 cells. The driving force for the response is the creation of a chloride ion gradient in conjunction with channel activation by a single liquid addition step after the cells have previously been treated with compounds and subsequently loaded with a voltage sensing dye.
2. Identification of Corrector Compounds
To identify correctors of F508del, a single-addition HTS assay format was developed. This HTS assay utilizes fluorescent voltage sensing dyes to measure changes in membrane potential on the FLIPR III as a measurement for increase in gating (conductance) of F508del in F508del NIH 3T3 cells. The F508del NIH 3T3 cell cultures were incubated with the corrector compounds at a range of concentrations for 18-24 hours at 37° C., and subsequently loaded with a redistribution dye. The driving force for the response is a Cl^− ion gradient in conjunction with channel activation with forskolin in a single liquid addition step using a fluorescent plate reader such as FLIPR III.
Bath Solution #1: (in mM) NaCl 160, KCl 4.5, CaCl2) 2, MgCl2 1, HEPES 10, pH 7.4 with NaOH.
Chloride-free bath solution: Chloride salts in Bath Solution #1 (above) are substituted with gluconate salts.
NIH3T3 mouse fibroblasts stably expressing F508del are used for optical measurements of membrane potential. The cells are maintained at 37° C. in 5% CO2 and 90% humidity in Dulbecco's modified Eagle's medium supplemented with 2 mM glutamine, 10% fetal bovine serum, 1× NEAA, b-ME, 1×pen/strep, and 25 mM HEPES in 175 cm^2 culture flasks. For all optical assays, the cells were seeded at ˜20,000/well in 384-well Matrigel-coated plates. For the correction assays, the cells are cultured at 37° C. with and without compounds for 16-24 hours.

In data set [3] the target is T1, CFTR. Put plainly: Membrane potential dye, Enteroid Assay A. The data set is classed as cell-based. The settings on record: for Ent. A Max Activity: chloride transport as % of triple combination control (Enteroid Assay A); for pEC50: human enteroid cells, 18-24 hours, acute 10 μM forskolin and 300 nM ivacaftor, read-out: Ent. A EC50. The method, boiled down: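 % Activity: chloride transport relative to a 3 μM/3 μM corrector pair plus 300 nM acute potentiator control. Primary human enteroid cells, 18-24 h compound exposure at 37 °C; membrane potential dye (methyl oxonol) fluorescence over 15 min after forskolin (10 μM)/IBMX (100 μM)/Compound III (300 nM) stimulation in chloride-free buffer.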

pEC50: −log10 of the molar value. “And” between values parts separate entries of the source, which are not always exact repeats. Equal entries are not always repeated. Where two headings read alike, the source gives them in different places.

T1 sequence (P13569 with tags, fused parts or gaps DEL508-508): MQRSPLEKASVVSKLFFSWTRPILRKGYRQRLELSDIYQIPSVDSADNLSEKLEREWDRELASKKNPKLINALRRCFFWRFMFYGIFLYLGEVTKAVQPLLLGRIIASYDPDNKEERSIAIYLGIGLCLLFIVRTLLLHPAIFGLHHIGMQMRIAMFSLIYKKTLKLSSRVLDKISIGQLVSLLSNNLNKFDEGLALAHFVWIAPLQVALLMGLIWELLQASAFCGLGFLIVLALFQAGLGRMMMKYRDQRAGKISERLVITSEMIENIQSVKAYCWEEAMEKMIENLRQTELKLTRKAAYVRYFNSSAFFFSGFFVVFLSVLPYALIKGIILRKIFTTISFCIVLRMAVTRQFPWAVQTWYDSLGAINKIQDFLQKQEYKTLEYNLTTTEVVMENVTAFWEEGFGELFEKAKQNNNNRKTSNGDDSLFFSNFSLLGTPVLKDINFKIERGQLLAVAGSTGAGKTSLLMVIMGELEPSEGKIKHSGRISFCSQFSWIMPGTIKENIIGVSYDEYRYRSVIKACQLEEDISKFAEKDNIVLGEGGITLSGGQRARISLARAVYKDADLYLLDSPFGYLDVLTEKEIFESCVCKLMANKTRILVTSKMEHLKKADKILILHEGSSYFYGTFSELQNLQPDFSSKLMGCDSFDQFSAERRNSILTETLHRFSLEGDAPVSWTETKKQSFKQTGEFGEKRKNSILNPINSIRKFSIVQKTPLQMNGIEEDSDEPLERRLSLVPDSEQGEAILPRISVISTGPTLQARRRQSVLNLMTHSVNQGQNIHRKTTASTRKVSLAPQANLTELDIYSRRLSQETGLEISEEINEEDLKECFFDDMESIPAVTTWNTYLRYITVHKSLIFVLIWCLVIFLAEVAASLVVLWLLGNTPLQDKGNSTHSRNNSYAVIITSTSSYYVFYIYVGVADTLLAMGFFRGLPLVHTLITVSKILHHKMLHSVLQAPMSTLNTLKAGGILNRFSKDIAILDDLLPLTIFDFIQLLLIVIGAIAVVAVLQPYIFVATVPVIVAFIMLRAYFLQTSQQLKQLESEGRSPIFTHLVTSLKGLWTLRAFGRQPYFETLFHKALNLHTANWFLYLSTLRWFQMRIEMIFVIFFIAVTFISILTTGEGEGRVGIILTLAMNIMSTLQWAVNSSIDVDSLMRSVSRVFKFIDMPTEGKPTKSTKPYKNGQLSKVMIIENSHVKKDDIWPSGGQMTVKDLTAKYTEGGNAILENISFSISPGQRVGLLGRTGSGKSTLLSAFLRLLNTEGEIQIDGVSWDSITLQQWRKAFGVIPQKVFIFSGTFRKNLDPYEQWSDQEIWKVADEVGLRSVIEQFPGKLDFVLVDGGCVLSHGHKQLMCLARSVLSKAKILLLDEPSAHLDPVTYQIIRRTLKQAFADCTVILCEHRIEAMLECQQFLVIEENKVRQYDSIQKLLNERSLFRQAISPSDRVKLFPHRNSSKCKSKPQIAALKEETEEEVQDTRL
T2 sequence (P13569 with tags, fused parts or gaps DEL508-508): as above

`Cc1cccc(C)c1-c1cc2nc(n1)NS(=O)(=O)c1cccc(c1)C(=O)N(CCc1cccc(F)n1)[C@H](CC(C)(C)C)CO2` registered a ring closure, yield after HPLC in data set [1] (from Cc1cccc(C)c1-c1cc(OC[C@@H](CC(C)(C)C)NCCc2cccc(F)n2)nc(NS(=O)(=O)c2cccc(C(=O)O)c2)n1, CDMT/NMM, DMF, 25.0 °C, 3.0 h, 2 steps) of 6%.

For the compound `Cc1cccc(C)c1-c1cc2nc(n1)NS(=O)(=O)c1cccc(c1)C(=O)N(Cc1ccc(I)cc1)[C@H](CC(C)(C)C)CO2`, the ring closure, yield after HPLC in data set [1] (from Cc1cccc(C)c1-c1cc(OC[C@@H](CC(C)(C)C)NCc2ccc(I)cc2)nc(NS(=O)(=O)c2cccc(C(=O)O)c2)n1, HATU/DIEA, DMF, 26.1 mM, 15.0 h) was found to be 32%.

`COC(=O)C12CC(CN3C(=O)c4cccc(c4)S(=O)(=O)Nc4nc(cc(-c5c(C)cccc5C)n4)OC[C@H]3CC(C)(C)C)(C1)C2` registered a ring closure, yield after HPLC in data set [1] (from COC(=O)C12CC(CN[C@@H](COc3cc(-c4c(C)cccc4C)nc(NS(=O)(=O)c4cccc(C(=O)O)c4)n3)CC(C)(C)C)(C1)C2, CDMT/NMM, DMF, 29.1 mM, 25.0 °C, 60.0 h) of 27%.

With `CCOC(=O)CCCCN1C(=O)c2cccc(c2)S(=O)(=O)Nc2nc(cc(-c3c(C)cccc3C)n2)OC[C@H]1CC(C)(C)C`, the ring closure, yield after HPLC in data set [1] (from CCOC(=O)CCCCN[C@@H](COc1cc(-c2c(C)cccc2C)nc(NS(=O)(=O)c2cccc(C(=O)O)c2)n1)CC(C)(C)C, HATU/DIEA, DMF, 62.0 mM, 25.0 °C, 1.0 h) was determined as 66%.

Compound `Cc1cccc(C)c1-c1cc2nc(n1)NS(=O)(=O)c1cccc(c1)C(=O)N(C[C@H]1COC(C)(C)O1)[C@H](CC(C)C)CO2` came in with a ring closure, yield after HPLC in data set [1] (from Cc1cccc(C)c1-c1cc(OC[C@@H](CC(C)C)NC[C@H]2COC(C)(C)O2)nc(NS(=O)(=O)c2cccc(C(=O)O)c2)n1, HATU/DIEA, DMF, 26.2 mM, 25.0 °C, 2.0 h, 2 steps) of 12%.

Compound `Cc1cccc(C)c1-c1cc2nc(n1)NS(=O)(=O)c1cccc(c1)C(=O)N(CC1CCN(C(=O)OC(C)(C)C)CC1)[C@H](CC(C)(C)C)CO2` had a ring closure, yield after HPLC in data set [1] (from Cc1cccc(C)c1-c1cc(OC[C@@H](CC(C)(C)C)NCC2CCN(C(=O)OC(C)(C)C)CC2)nc(NS(=O)(=O)c2cccc(C(=O)O)c2)n1, CDMT/NMM, DMF, 25.0 °C, 3.5 h, 2 steps) of 25%.

Regarding `Cc1cccc(C)c1-c1cc2nc(n1)NS(=O)(=O)c1cccc(c1)C(=O)N(Cc1cncc(N3CCC[C@H]3C)n1)C(C1CC(C)(C)C1)CO2` (some centres unmarked), in data set [1] (from Cc1cccc(C)c1-c1cc(OCC(NCc2cncc(N3CCC[C@H]3C)n2)C2CC(C)(C)C2)nc(NS(=O)(=O)c2cccc(C(=O)O)c2)n1, CDMT/NMM, DMF, 12.7 mM, 16.5 h), the ring closure, yield after HPLC was 18% and 17%.

In turn, `CCOC(=O)COc1ccc(CN2C(=O)c3cccc(c3)S(=O)(=O)Nc3nc(cc(-c4c(C)cccc4C)n3)OC[C@H]2CC(C)(C)C)nc1` had a ring closure, yield after HPLC in data set [1] (from CCOC(=O)COc1ccc(CN[C@@H](COc2cc(-c3c(C)cccc3C)nc(NS(=O)(=O)c3cccc(C(=O)O)c3)n2)CC(C)(C)C)nc1, HATU/DIEA, DMF, 29.1 mM, 25.0 °C, 4.0 h) of 42%.

`Cc1cccc(C)c1-c1cc2nc(n1)NS(=O)(=O)c1cccc(c1)C(=O)N(Cc1cncc(N(C)C3CCC3)n1)[C@@H]1CN(C(=O)OC(C)(C)C)C[C@H]1O2` showed a ring closure, yield after HPLC in data set [1] (from Cc1cccc(C)c1-c1cc(O[C@@H]2CN(C(=O)OC(C)(C)C)C[C@H]2NCc2cncc(N(C)C3CCC3)n2)nc(NS(=O)(=O)c2cccc(C(=O)O)c2)n1, CDMT/NMM, DMF, 24.3 mM, 15.1 h) of 48%.

Consider `Cc1cccc(C)c1-c1cc2nc(n1)N=S(N)(=O)c1cccc(c1)C(=O)N(Cc1ncc(N3CC(C)(C)C3)cn1)[C@H](CC(C)(C)C)CO2` (single isomer, unassigned; isomer b), for which the ring closure, yield after HPLC in data set [1] (from 3-[[[4-[(2R)-2-[[5-(3,3-dimethylazetidin-1-yl)pyrimidin-2-yl]methylamino]-4,4-dimethyl-pentoxy]-6-(2,6-dimethylphenyl)pyrimidin-2-yl]amino]sulfonimidoyl]benzoic acid (hydrochloride salt) isomer B, CDMT/NMM, DMF, 18.4 mM) worked out at 4%.

Compound `Cc1cccc(C)c1-c1cc2nc(n1)NS(=O)(=O)c1cccc(c1)C(=O)N(C)CC(c1ccc(CC3(C(F)(F)F)CC3)cn1)O2` (centres unmarked) returned a ring closure, yield after HPLC in data set [1] (from CNCC(Oc1cc(-c2c(C)cccc2C)nc(NS(=O)(=O)c2cccc(C(=O)O)c2)n1)c1ccc(CC2(C(F)(F)F)CC2)cn1, HATU (excess NaOtBu from SNAr), THF/DMF, 49.6 mM, 25.0 °C, 3.0 h, 2 steps) of 35%.

As to `Cc1cccc(C)c1-c1cc2nc(n1)NS(=O)(=O)c1cccc(c1)C(=O)N(Cc1cccc(F)n1)[C@H](CC(C)(C)C)CO2`, in data set [1] (from 3-[[4-(2,6-dimethylphenyl)-6-[(2R)-2-[(6-fluoro-2-pyridyl)methylamino]-4,4-dimethyl-pentoxy]pyrimidin-2-yl]sulfamoyl]benzoic acid (Dihydrochloride salt), CDMT/NMM, DMF, 25.2 mM), the ring closure, yield after HPLC is 66%.

As for `Cc1cccc(C)c1-c1cc2nc(n1)NS(=O)(=O)c1cccc(c1)C(=O)N(Cc1ccc(F)nc1)[C@H](CC(C)(C)C)CO2`, the ring closure, yield after HPLC in data set [1] (from Cc1cccc(C)c1-c1cc(OC[C@@H](CC(C)(C)C)NCc2ccc(F)nc2)nc(NS(=O)(=O)c2cccc(C(=O)O)c2)n1, CDMT/NMM, DMF, 25.0 °C, 5.0 h, 2 steps) stood at 34%.

Take `Cc1cccc(C)c1-c1cc2nc(n1)NS(=O)(=O)c1cccc(c1)C(=O)N(Cc1ccc(N3CCC(C)CC3)nc1)[C@H](CC(C)C)CO2` [Compound 975]: the “Ent. B Max Activity” value on CFTR [2] (chloride transport as % of triple combination control (Enteroid Assay B)) was “+++ (+++ is >60%)”. The pEC50 on CFTR [2] (human enteroid cells, 18-24 hours, acute 10 μM forskolin and 300 nM ivacaftor, read-out: Ent. B EC50) was over 6.00. For the same compound, at F508del (Table 6), the Emax is over 60% and the pEC50 is over 6.00. Further, on CFTR [3] (Table 6), the “Ent. A Max Activity” value was “+++ (+++ is >60%)” and the pEC50 was over 6.00.

For the compound `Cc1cccc(C)c1-c1cc2nc(n1)NS(=O)(=O)c1cccc(c1)C(=O)N(CCC1CCN(C)CC1)[C@H](CC(C)C)CO2` [Compound 418], at F508del (Table 6), the Emax is over 60% and the pEC50 was over 6.00. Besides, on CFTR [3] (Table 6), the “Ent. A Max Activity” value is “+++ (+++ is >60%)” and the pEC50 was over 6.00.

On to `Cc1cccc(C)c1-c1cc2nc(n1)NS(=O)(=O)c1cccc(c1)CN(CCC(F)(F)F)[C@H](CC(C)C)CO2` [Compound 1021], for which, on F508del (Table 7), the Emax was over 60% and the pEC50 was over 6.00. Further, at CFTR [3] (Table 7), the “Ent. A Max Activity” value was “++ (++ is 30-60%)” and the pEC50 was over 6.00.

On to `Cc1cccc(C)c1-c1cc2nc(n1)NS(=O)(=O)c1cccc(c1)C(=O)N(CCC1CCOCC1)[C@H](CCC1(C(F)(F)F)CC1)CO2` (single isomer, unassigned) [Compound 72, 6-(2,6-Dimethylphenyl)-2,2-dioxo-12-(2-tetrahydropyran-4-ylethyl)-11-[2-[1-(trifluoromethyl)cyclopropyl]ethyl]-9-oxa-2λ^6-thia-3,5,12,19-tetrazatricyclo[12.3.1.14,8]nonadeca-1(18),4(19),5,7,14,16-hexaen-13-one], for which, at F508del (Table 6), the Emax is over 60% and the pEC50 is over 6.00. For the same compound, on CFTR [3] (Table 6), the “Ent. A Max Activity” value is on record as “+++ (+++ is >60%)” and the negative logarithm of the EC50 (pEC50) was over 6.00.

As for `Cc1cccc(C)c1-c1cc2nc(n1)NS(=O)(=O)c1cccc(c1)C(=O)N(C)C[C@H](c1ccc(C(C)(C)C)cn1)O2` (single isomer, unassigned) [Compound 103, 10-(5-tert-butyl-2-pyridyl)-6-(2,6-dimethylphenyl)-12-methyl-2,2-dioxo-9-oxa-2λ^6-thia-3,5,12,19-tetrazatricyclo[12.3.1.14,8]nonadeca-1(18),4(19),5,7,14,16-hexaen-13-one], at F508del (Table 7), the Emax was over 60% and the pEC50 is over 6.00. For the same compound, at CFTR [3] (Table 7), the “Ent. A Max Activity” value is on record as “+++ (+++ is >60%)” and the pEC50 was over 6.00.
